The values below come from PMC6332449, “Pharmacological Validation of N-Myristoyltransferase as a Drug Target in Leishmania donovani” (ACS Infectious Diseases, 2018).

Like-named read-outs stand apart in the source and are kept apart here.

Experiment [1] deals with L. donovani intracellular amastigotes. Nature of the experiment: L. donovani intramacrophage (intracellular amastigote) assay. Format: cell-based, Leishmania donovani. The settings on record: read-out: intramacrophage EC50. The protocol: (§1) The clonal L. donovani cell line LdBOB (derived from MHOM/SD/62/1S-CL2D) was used in our in vitro compound screening and mechanism of action studies. Promastigotes were grown at 26 °C in modified M199 media with axenic amastigotes grown at 37 °C, as previously described.[35] All animal studies were carried using L. donovani (LV9; WHO designation: MHOM/ET/67/HU3).
(§2) These assays were carried out as previously described.[25],[36],[37]

In experiment [2] the test system is L. donovani promastigotes. The experiment is described as follows: L. donovani promastigote compound sensitivity assay. The experiment is classed as cell-based, Leishmania donovani. The settings on record: read-out: promastigote EC50. The method, then: as §1, §2
Experiment [3] has as its system L. donovani axenic amastigotes. Nature of the experiment: L. donovani axenic amastigote compound sensitivity assay. Conditions: read-out: axenic amastigote EC50. The experiment is classed as cell-based, Leishmania donovani. The method, then:
as §1, §2

The subject of experiment [4] is THP-1. Nature of the experiment: THP-1 host cell toxicity in the intramacrophage assay. The experiment is classed as cell-based. The protocol:
as §2

Experiment [5] deals with T1, L. major NMT (LmNMT) (Leishmania major, UniProt Q4Q5S8).
T1 construct: Recombinant LmNMT was expressed and purified as previously described; made in house
T1 sequence (Q4Q5S8 entry or part of it): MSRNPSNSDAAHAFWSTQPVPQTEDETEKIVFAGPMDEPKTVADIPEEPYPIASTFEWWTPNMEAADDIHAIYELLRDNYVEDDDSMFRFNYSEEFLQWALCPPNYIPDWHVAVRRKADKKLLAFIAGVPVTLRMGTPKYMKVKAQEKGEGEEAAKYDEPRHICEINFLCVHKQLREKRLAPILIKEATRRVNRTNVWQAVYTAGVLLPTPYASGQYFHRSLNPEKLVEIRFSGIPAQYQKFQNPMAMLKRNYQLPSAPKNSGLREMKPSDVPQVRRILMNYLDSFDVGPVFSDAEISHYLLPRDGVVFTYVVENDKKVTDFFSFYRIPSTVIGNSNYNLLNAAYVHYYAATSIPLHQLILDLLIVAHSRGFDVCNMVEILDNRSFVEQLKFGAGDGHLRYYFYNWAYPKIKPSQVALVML
The experiment is described as follows: LmNMT enzymatic assay (scintillation proximity, [3H]myristoyl-CoA, CAP5.5 peptide). The experiment is classed as biochemical.

The target in experiment [6] is T2, human NMT (HsNMT) (Homo sapiens, UniProt P30419).
T2 sequence (P30419 1-496): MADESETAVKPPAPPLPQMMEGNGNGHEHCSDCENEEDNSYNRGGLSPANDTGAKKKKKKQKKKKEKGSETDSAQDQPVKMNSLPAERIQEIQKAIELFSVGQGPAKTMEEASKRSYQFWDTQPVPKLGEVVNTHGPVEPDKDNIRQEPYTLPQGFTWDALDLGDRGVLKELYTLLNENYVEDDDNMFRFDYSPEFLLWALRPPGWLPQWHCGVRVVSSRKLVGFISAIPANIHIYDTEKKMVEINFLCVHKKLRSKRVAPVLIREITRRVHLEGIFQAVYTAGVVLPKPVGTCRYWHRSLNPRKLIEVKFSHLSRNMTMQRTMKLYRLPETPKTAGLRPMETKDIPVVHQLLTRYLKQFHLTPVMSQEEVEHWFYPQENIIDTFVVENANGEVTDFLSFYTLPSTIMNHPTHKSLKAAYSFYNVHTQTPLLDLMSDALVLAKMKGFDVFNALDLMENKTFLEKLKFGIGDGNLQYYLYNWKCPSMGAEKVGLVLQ
The experiment is described as follows: counter-screen against human NMT. Format: biochemical. (In general: A counterscreen serves to expose hits that act by an unwanted route or on another target.)

For experiment [7], the system named is L. donovani amastigotes (LV9). The experiment is described as follows: mouse model of VL (BALB/c mice infected with L. donovani LV9).
Experiment [8] has as its system Trypanosoma brucei N-myristoyltransferase (TbNMT). The settings on record: cited from earlier work.
For experiment [9], the system named is Trypanosoma brucei. Further details: method as in PMID 20360736. Conditions: cited from earlier work.
The test system of experiment [10] is Trypanosoma brucei. Conditions: cited from earlier work.
In experiment [11] the test system is Vero cells. The experiment is described as follows: host Vero cell toxicity. Format: cell-based. Conditions: Chlorocebus sabaeus, read-out: EC50 against host Vero cells.
The subject of experiment [12] is intracellular amastigote form of T. cruzi. Nature of the experiment: T. cruzi intracellular amastigote assay. The experiment is classed as cell-based. Conditions: Trypanosoma cruzi; read-out: EC50 against T. cruzi intracellular amastigotes.
The mark [13] stands for this setting: Leishmania donovani, L. donovani intracellular amastigotes.
Setting [14] is: Leishmania donovani, L. donovani LdBOB.
The mark [15] stands for this setting: Homo sapiens, THP-1; read-out: THP-1 EC50.
Where [16] appears, read: Homo sapiens, THP-1, read-out: THP-1 EC50.

The EC50 is the midpoint of the concentration-response curve. By IC50 is commonly meant the midpoint of a concentration-inhibition curve.

For the compound `Cc1nn(C)c(C)c1N(C)S(=O)(=O)c1c(Cl)cc(N2CCN(C(=O)Cc3ccccc3)CC2)cc1Cl` [compound 9, 2,6-Dichloro-N-methyl-4-(4-(2-phenylacetyl)piperazin-1-yl)-N-(1,3,5-trimethyl-1H-pyrazol-4-yl)benzenesulfonamide], the EC50 in experiment [1] (setting [13]) was 40.5 ± 13.4 µM; in experiment [2] (setting [14]), 6.3 ± 0.3 µM; in experiment [3] (setting [14]), 2.2 ± 0.03 µM; in [4] (setting [15]), above 50 µM. Also, the IC50 turned out to be 10 µM in [5] and 6.3 µM in experiment [6]. In addition, the “potency against LmNMT (in words)” value in experiment [5] is “poor activity”.
For the compound `Cc1nn(C)c(C)c1N(C)S(=O)(=O)c1c(Cl)cc(N2CCN(C(=O)c3cn[nH]c3)CC2)cc1Cl` [compound 6, 4-(4-(1H-Pyrazole-4-carbonyl)piperazin-1-yl)-2,6-dichloro-N-methyl-N-(1,3,5-trimethyl-1H-pyrazol-4-yl)benzenesulfonamide], the EC50 in [1] (setting [13]), in experiment [2] (setting [14]), in [3] (setting [14]) and in experiment [4] (setting [15]) was above 50 µM each time. In addition, the IC50 in experiment [5] came to 0.06 µM; in experiment [6], 0.1 µM.
Turning to `Cc1nn(C)c(C)c1N(C)S(=O)(=O)c1c(Cl)cc(N2CCN(C(=O)c3cccnc3)CC2)cc1Cl` [compound 7, 2,6-Dichloro-N-methyl-4-(4-nicotinoylpiperazin-1-yl)-N-(1,3,5-trimethyl-1H-pyrazol-4-yl)benzenesulfonamide], the EC50 in experiment [1] (setting [13]) was above 50 µM; in experiment [2] (setting [14]) it was 5.8 ± 0.4 µM; in experiment [3] (setting [14]) it was 0.3 ± 0.01 µM; in [4] (setting [15]), above 50 µM. Further, the IC50 in experiment [5] came out at 0.1 µM; in [6], 0.5 µM.
For the compound `O.O.O.O.O.O.O.O.O.O=C([O-])[C@@H]1[O][Sb](=[O])([O][Sb]2(=[O])[O][C@H]([C@H](O)CO)[C@H](O)[C@H](C(=O)[O-])[O]2)[O][C@H]([C@H](O)CO)[C@@H]1O.[Na+].[Na+].[Na+]` (some centres unmarked) [sodium stibogluconate], in experiment [7] (15 mg kg^-1 subcutaneous q.d. for 5 days), the “reduction in liver parasite burden (LDU) versus vehicle” value (from here on “reduction in liver parasite burden”) amounted to 52%.
For `Cc1nn(C)c(C)c1N[S+](=O)([O-])c1ccc(CCCC2CCNCC2)cc1` [compound 1], the EC50 in [1] (L. donovani intracellular amastigotes), in experiment [2] (L. donovani LdBOB), in experiment [3] (L. donovani LdBOB) and in experiment [4] (read-out: THP-1 EC50) was above 50 µM each time. Further, the IC50 in experiment [5] (5 nM LmNMT, 0.5 μM CAP5.5, 0.125 μM myristoyl-CoA, read-out: LmNMT IC50) was found to be 0.4 µM.
With `Cc1nn(C)c(C)c1NS(=O)(=O)c1c(Cl)cc(-c2ccnc(N3CCNCC3)c2)cc1Cl` [DDD85646], the “inhibition of TbNMT (in words)” value in experiment [8] is given as “low nM inhibitor”. In addition, the “efficacy in mouse models of stage 1 HAT (in words)” value in experiment [9] is “curative”. Further, the “activity in the stage 2 HAT mouse model (in words)” value in [10] was “not active”.
On to `CCCCCCCCCCCCCCCCOP(=O)([O-])OCC[N+](C)(C)C` [miltefosine], for which, in experiment [7] (30 mg kg^-1 orally q.d. for 5 days), the “reduction in liver parasite burden” value was 88%.
With `Cc1nn(C)c(C)c1N(C)S(=O)(=O)c1c(Cl)cc(N2CCN(C(=O)c3ccn[nH]3)CC2)cc1Cl` [compound 4, 4-(4-(1H-Pyrazole-5-carbonyl)piperazin-1-yl)-2,6-dichloro-N-methyl-N-(1,3,5-trimethyl-1H-pyrazol-4-yl)benzenesulfonamide], the EC50 in experiment [1] (setting [13]) was above 50 µM; in experiment [2] (setting [14]), 18.3 ± 0.1 µM; in experiment [3] (setting [14]), 2.7 ± 0.08 µM; in experiment [4] (setting [15]), above 50 µM. For the same compound, the IC50 in [5] amounted to 0.03 µM; in [6], 0.02 µM.
In the case of `Cc1nn(C)c(C)c1N(C(F)F)S(=O)(=O)c1c(Cl)cc(CCCC2CCN(C)CC2)cc1Cl` [compound 2], the EC50 in experiment [11] is 5.1 µM; in experiment [12], 0.47 µM; in experiment [1] (Leishmania donovani) it was 2.4 ± 0.8 µM; in experiment [2] (Leishmania donovani) it was 0.04 ± 0.001 µM; in experiment [3] (Leishmania donovani) it was 0.2 ± 0.006 µM; in [4] (setting [16]) it was 15.8 µM. The “reduction in liver parasite burden” value in [7] (50 mg kg^-1 orally b.i.d. for 5 days) stood at 52%. Moreover, the “efficacy in the stage 2 mouse model (in words)” value in experiment [10] is listed as “moderate efficacy”.
For `Cc1nn(C)c(C)c1N(C)S(=O)(=O)c1c(Cl)cc(N2CCN(C(=O)c3ccc(N)cc3)CC2)cc1Cl` [compound 8, 4-(4-(4-Aminobenzoyl)piperazin-1-yl)-2,6-dichloro-N-methyl-N-(1,3,5-trimethyl-1H-pyrazol-4-yl)benzenesulfonamide], the EC50 is above 50 µM in [1] (setting [13]), 8.2 ± 0.5 µM in [2] (setting [14]), 5.1 ± 0.2 µM in experiment [3] (setting [14]) and above 50 µM in experiment [4] (setting [15]). The IC50 in [5] worked out at 0.03 µM; in experiment [6] it was 0.008 µM.
As to `Cc1nn(C)c(C)c1N(C)S(=O)(=O)c1c(Cl)cc(N2CCN(C(=O)c3cnn(C)c3)CC2)cc1Cl` [compound 5, 2,6-Dichloro-N-methyl-4-(4-(1-methyl-1H-pyrazole-4-carbonyl)piperazin-1-yl)-N-(1,3,5-trimethyl-1H-pyrazol-4-yl)benzenesulfonamide], the EC50 is above 50 µM in experiment [1] (setting [13]), 10 ± 0.4 µM in experiment [2] (setting [14]), 9.2 ± 0.4 µM in experiment [3] (setting [14]) and above 50 µM in experiment [4] (setting [15]). In addition, the IC50 in experiment [5] and in experiment [6] was 0.08 µM throughout.
Regarding `Cc1nn(C)c(C)c1N(C)S(=O)(=O)c1c(Cl)cc(CCCC2CCN(C)CC2)cc1Cl` [compound 3], the EC50 is 7.1 ± 1.1 µM in experiment [1] (Leishmania donovani), 0.07 ± 0.004 µM in experiment [2] (Leishmania donovani), 8.2 ± 0.6 µM in [3] (Leishmania donovani) and above 50 µM in experiment [4] (setting [16]).
